Reference: patent US20250339409A1, “USES OF PAN BET INHIBITORS” (VYNE THERAPEUTICS INC., priority 2021, published 2025)

Test system: imiquimod-induced psoriasis
Experiment: Imiquimod-induced psoriasis (Th17 inflammation) model in mice, topical treatment once daily D7-D13: PASI, modified PASI, body weight, use of enrichment, TEWL
Format: in vivo
Parameters: key to Mean score use enrichment: 0 = no use of dental rolls to 4 = use of all 4; key to PASI Mean score values: sum of erythema, induration, peeling scores, each 0-3 (0 = none)
Method: Thirty-six (36) female Balb/c mice are weighed and randomly divided into 9 groups (n=4) according to body weight on D1. For mice of native group 1 and tolerance groups 8 and 9, no induction of psoriasis is performed between D1 and D13. Psoriasis is induced in groups 2 to 7 by once daily topical application for 13 days (from day 1 to day 13) of 65 mg of Aldara™ cream (5.0% imiquimod) onto the shaved and epilated back of mice. Before the first treatment, a second randomization of mice of the 6 imiquimod-induced psoriasis groups is performed according to the severity of psoriasis (PASI), and also the body weight of mice. Starting on day 7 and until day 13, 100 mg of test formulations […] and 65 mg of vehicle (groups 1 and […]) are topically administered once daily for 7 consecutive days onto the shaved back skin of mice. Several measurements are taken during treatment period from day 7 to day 14: psoriasis index (PASI), body weight, use of enrichment and mortality. At the end of treatment period, TEWL is assessed, and blood and skin samples are collected. Histological analysis of skin samples is used for microscopic scoring of psoriasis and the determination of the thickness of parakeratosis and epidermis and blood analysis is used for assessing the level of proinflammatory biomarkers (cytokines assays). The effect of treatment of psoriasis induced mice with BETi formulations at the four dose levels are compared with Dermoval® cream containing 0.05% clobetasol propionate (reference) and vehicle (positive control) and also with healthy mice treated with vehicle (negative control).
PASI scoring takes into account the following 3 parameters: the presence of erythema on the skin, induration of the skin (thickening) and peeling of the skin at the area of the induction of psoriasis.
The presence of erythema on the skin at the area of induction of psoriasis with the following scoring grid: • 0=no or no more erythema on the skin, • 1=weak erythema on the skin, • 2=moderate erythema on the skin, • 3=important erythema on the skin.
The presence of induration of the skin at the area of induction of psoriasis with the following scoring grid: • 0=no or no more induration of the skin, • 1=weak induration of the skin, • 2=moderate induration of the skin, • 3=important induration of the skin.
The presence of peeling of the skin at the area of induction of psoriasis with the following scoring grid: • 0=no or no more dryness/peeling of the skin, • 1=weak dryness/peeling of the skin, • 2=moderate dryness/peeling of the skin, • 3=important dryness/peeling of the skin.
The sum of the mean scores of these 3 parameters result in the mean PASI score.
One of the issues with a steroid is that it causes skin thinning and continues to have an effect on no longer inflamed skin and the model set up and measurements above are not designed to reflect this negative effect. Therefore, a modified PASI (mPASI) is calculated in the same the manner as mean PASI score but excludes the scoring for induration (thickening of the skin).
Mice are weighed three times during the week of D1 to D7, and then daily during the week of D7 to D13, as well as on the day D14 when they are sacrificed. It should be noted that a characteristic body weight loss of mice is observed after the start of the induction of psoriasis, mainly during the first days following it. The body weight loss can reach between 10 to 15%.
For the duration of the experiment, dental rolls are used as enrichment and placed in each cage and replaced twice. Between D1 and D7, the number of dental rolls used by animals are determined twice in the morning, and are determined daily during D7 to D14, at the time of PASI or the tolerance assessment. The use of dental rolls is scored from 0=no use of dental rolls to 4=use of the 4 dental rolls. In the case where only half of a dental roll is used, a score of 0.5 is assigned. […]

## Cn1cc(-c2cccc(O)c2Oc2ccccc2)c2cc[nH]c2c1=O [BETi1]
Table 1C, imiquimod-induced mice, treatment day 0, listed as BETi1 0.001%
  Change in Modified PASI Mean score values: 4.25
Table 1C, imiquimod-induced mice, treatment day 0, listed as BETi1 0.01%
  Change in Modified PASI Mean score values: 4.375
Table 1C, imiquimod-induced mice, treatment day 0, listed as BETi1 0.1%
  Change in Modified PASI Mean score values: 4.375
Table 1C, imiquimod-induced mice, treatment day 1, listed as BETi1 0.001%
  Change in Modified PASI Mean score values: 5.375
Table 1C, imiquimod-induced mice, treatment day 1, listed as BETi1 0.01%
  Change in Modified PASI Mean score values: 4
Table 1C, imiquimod-induced mice, treatment day 1, listed as BETi1 0.1%
  Change in Modified PASI Mean score values: 4.375
Table 1C, imiquimod-induced mice, treatment day 2, listed as BETi1 0.001%
  Change in Modified PASI Mean score values: 4.75
Table 1C, imiquimod-induced mice, treatment day 2, listed as BETi1 0.01%
  Change in Modified PASI Mean score values: 2.875
Table 1C, imiquimod-induced mice, treatment day 2, listed as BETi1 0.1%
  Change in Modified PASI Mean score values: 3.125
Table 1C, imiquimod-induced mice, treatment day 3, listed as BETi1 0.001%
  Change in Modified PASI Mean score values: 4.25
Table 1C, imiquimod-induced mice, treatment day 3, listed as BETi1 0.01%
  Change in Modified PASI Mean score values: 2.5
Table 1C, imiquimod-induced mice, treatment day 3, listed as BETi1 0.1%
  Change in Modified PASI Mean score values: 2
Table 1C, imiquimod-induced mice, treatment day 4, listed as BETi1 0.001%
  Change in Modified PASI Mean score values: 4
Table 1C, imiquimod-induced mice, treatment day 4, listed as BETi1 0.01%
  Change in Modified PASI Mean score values: 2.125
Table 1C, imiquimod-induced mice, treatment day 4, listed as BETi1 0.1%
  Change in Modified PASI Mean score values: 0.75
Table 1C, imiquimod-induced mice, treatment day 5, listed as BETi1 0.001%
  Change in Modified PASI Mean score values: 3.375
Table 1C, imiquimod-induced mice, treatment day 5, listed as BETi1 0.01%
  Change in Modified PASI Mean score values: 1
Table 1C, imiquimod-induced mice, treatment day 5, listed as BETi1 0.1%
  Change in Modified PASI Mean score values: 0.375
Table 1C, imiquimod-induced mice, treatment day 6, listed as BETi1 0.001%
  Change in Modified PASI Mean score values: 3
Table 1C, imiquimod-induced mice, treatment day 6, listed as BETi1 0.01%
  Change in Modified PASI Mean score values: 1.25
Table 1C, imiquimod-induced mice, treatment day 6, listed as BETi1 0.1%
  Change in Modified PASI Mean score values: 0.25
Table 1C, imiquimod-induced mice, treatment day 7, listed as BETi1 0.001%
  Change in Modified PASI Mean score values: 3
Table 1C, imiquimod-induced mice, treatment day 7, listed as BETi1 0.01%
  Change in Modified PASI Mean score values: 1
Table 1C, imiquimod-induced mice, treatment day 7, listed as BETi1 0.1%
  Change in Modified PASI Mean score values: 0.25
Table 1D, relative to day 0 = 100, treatment day 0
  Change in Modified PASI Mean score values: 100
Table 1D, relative to day 0 = 100, treatment day 1, listed as BETi1 0.001%
  Change in Modified PASI Mean score values: 126.47
Table 1D, relative to day 0 = 100, treatment day 1, listed as BETi1 0.01%
  Change in Modified PASI Mean score values: 91.43
Table 1D, relative to day 0 = 100, treatment day 1, listed as BETi1 0.1%
  Change in Modified PASI Mean score values: 100
Table 1D, relative to day 0 = 100, treatment day 2, listed as BETi1 0.001%
  Change in Modified PASI Mean score values: 111.76
Table 1D, relative to day 0 = 100, treatment day 2, listed as BETi1 0.01%
  Change in Modified PASI Mean score values: 65.71
Table 1D, relative to day 0 = 100, treatment day 2, listed as BETi1 0.1%
  Change in Modified PASI Mean score values: 71.43
Table 1D, relative to day 0 = 100, treatment day 3, listed as BETi1 0.001%
  Change in Modified PASI Mean score values: 100
Table 1D, relative to day 0 = 100, treatment day 3, listed as BETi1 0.01%
  Change in Modified PASI Mean score values: 57.14
Table 1D, relative to day 0 = 100, treatment day 3, listed as BETi1 0.1%
  Change in Modified PASI Mean score values: 45.72
Table 1D, relative to day 0 = 100, treatment day 4, listed as BETi1 0.001%
  Change in Modified PASI Mean score values: 94.12
Table 1D, relative to day 0 = 100, treatment day 4, listed as BETi1 0.01%
  Change in Modified PASI Mean score values: 48.57
Table 1D, relative to day 0 = 100, treatment day 4, listed as BETi1 0.1%
  Change in Modified PASI Mean score values: 17.142
Table 1D, relative to day 0 = 100, treatment day 5, listed as BETi1 0.001%
  Change in Modified PASI Mean score values: 79.41
Table 1D, relative to day 0 = 100, treatment day 5, listed as BETi1 0.01%
  Change in Modified PASI Mean score values: 22.86
Table 1D, relative to day 0 = 100, treatment day 5, listed as BETi1 0.1%
  Change in Modified PASI Mean score values: 8.57
Table 1D, relative to day 0 = 100, treatment day 6, listed as BETi1 0.001%
  Change in Modified PASI Mean score values: 70.59
Table 1D, relative to day 0 = 100, treatment day 6, listed as BETi1 0.01%
  Change in Modified PASI Mean score values: 28.57
Table 1D, relative to day 0 = 100, treatment day 6, listed as BETi1 0.1%
  Change in Modified PASI Mean score values: 5.71
Table 1D, relative to day 0 = 100, treatment day 7, listed as BETi1 0.001%
  Change in Modified PASI Mean score values: 70.59
Table 1D, relative to day 0 = 100, treatment day 7, listed as BETi1 0.01%
  Change in Modified PASI Mean score values: 22.86
Table 1D, relative to day 0 = 100, treatment day 7, listed as BETi1 0.1%
  Change in Modified PASI Mean score values: 5.71
imiquimod-induced mice, Before D 1, listed as BETi 0.001%
  Mean score use enrichment: 4.00
imiquimod-induced mice, Before D 1, listed as BETi 0.01%
  Mean score use enrichment: 4.00
imiquimod-induced mice, Before D 1, listed as BETi 0.1%
  Mean score use enrichment: 4.00
imiquimod-induced mice, Before D 1, listed as BETi 1.0%
  Mean score use enrichment: 3.75
imiquimod-induced mice, D 1
  Modified PASI Mean score values: 0.00
  PASI Mean score values: 0.00
imiquimod-induced mice, D 1-D 8, listed as BETi 0.001%
  Mean score use enrichment: 1.79
imiquimod-induced mice, D 1-D 8, listed as BETi 0.01%
  Mean score use enrichment: 1.61
imiquimod-induced mice, D 1-D 8, listed as BETi 0.1%
  Mean score use enrichment: 1.54
imiquimod-induced mice, D 1-D 8, listed as BETi 1.0%
  Mean score use enrichment: 2.56
imiquimod-induced mice, D 1, listed as BETi1 1.0%
  Mean body weights: 18.11
